Source: the supplement of paper PMC11061612

How the values were obtained:
Experiment in all cases: combination Emax (second highest fraction inhibited in the dose matrix, 72 h); higher = more inhibition; extreme values may be limits of the assay
[1] = test system: G-361 (Melanoma)
How it was run: (§1)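 Bliss excess equals the observed combination effect minus the expected value EA + EB − EA·EB, where EA and EB are the effects of each agent alone. Combination Emax is the second-highest inhibition within the matrix. Inhibition was scaled from CellTiter-Glo 2.0 luminescence, with 0 set by vehicle wells and 1 by blank wells, after 72 hours of two-drug dosing of cells plated in 1536-well plates.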

[2] = test system: MOLM-13 (Acute Myeloid Leukemia)
How it was run: as §1

[3] = test system: RD (Rhabdomyosarcoma)
How it was run: as §1

[4] = test system: SK-GT-2 (Gastric Carcinoma)
How it was run: as §1

[5] = test system: DAN-G (Pancreatic Carcinoma)
How it was run: as §1

[6] = test system: NCI-H526 (Small Cell Lung Carcinoma)
How it was run: as §1

[7] = test system: NCI-H929 (Plasma Cell Myeloma)
How it was run: as §1

[8] = test system: MOG-G-CCM (Low Grade Glioma)
How it was run: as §1

[9] = test system: HCC1419 (Breast Carcinoma)
How it was run: as §1

[10] = test system: KU812 (Chronic Myelogenous Leukemia)
How it was run: as §1

[11] = test system: RPMI-8226 (Plasma Cell Myeloma)
How it was run: as §1

[12] = test system: KMS-12-BM (Plasma Cell Myeloma)
How it was run: as §1

[13] = test system: NCCIT (Other Solid Carcinomas)
How it was run: as §1

[14] = test system: VMRC-RCZ (Kidney Carcinoma)
How it was run: as §1

[15] = test system: NCI-H2731 (Mesothelioma)
How it was run: as §1

[16] = test system: SJSA-1 (Osteosarcoma)
How it was run: as §1

[17] = test system: CW-2 (Colorectal Carcinoma)
How it was run: as §1

[18] = test system: NCI-H3122 (Lung Adenocarcinoma)
How it was run: as §1

[19] = test system: M059J (Glioblastoma)
How it was run: as §1

[20] = test system: JHH-4 (Hepatocellular Carcinoma)
How it was run: as §1

C=CCn1c(=O)c2cnc(Nc3ccc(N4CCN(C)CC4)cc3)nc2n1-c1cccc(C(C)(C)O)n1 [AZD1775] + C[C@@H]1COCCN1C2=NC(=NC(=C2)C3(CC3)[S@](=N)(=O)C)C4=C5C=CNC5=NC=C4 [AZD6738] (first compound max 1 µM, partner max 10 µM)
combination Emax [1]: 0.676
combination Emax [2]: 0.999
combination Emax [3]: 0.655
combination Emax [4]: 0.799
combination Emax [5]: 0.763
combination Emax [6]: 0.873
combination Emax [7]: 0.713
combination Emax [8]: 0.682
combination Emax [9]: 0.221
combination Emax [10]: 0.849
combination Emax [11]: 0.983
combination Emax [12]: 1
combination Emax [13]: 0.905
combination Emax [14]: 0.41
combination Emax [15]: 0.464
combination Emax [16]: 0.393
combination Emax [17]: 0.682
combination Emax [18]: 0.872
combination Emax [19]: 0.777
combination Emax [20]: 0.498

COc1nnc2ccc(N3CCC(c4ccc(OCCN5CCN(C)C(=O)[C@H]5C)cc4)CC3)nn12 [AZD5153] + CC1(C)CCC(CN2CCN(c3ccc(C(=O)NS(=O)(=O)c4ccc(NCC5CCOCC5)c([N+](=O)[O-])c4)c(Oc4cnc5[nH]ccc5c4)c3)CC2)=C(c2ccc(Cl)cc2)C1 [Venetoclax] (first compound max 1 µM, 7x7, partner max 1 µM)
combination Emax [1]: 0.617
combination Emax [2]: 1
combination Emax [3]: 0.533
combination Emax [4]: 0.256
combination Emax [5]: 0.268
combination Emax [6]: 0.973
combination Emax [7]: 0.951
combination Emax [8]: 0.54
combination Emax [9]: 0.389
combination Emax [10]: 0.924
combination Emax [11]: 0.8
combination Emax [12]: 1
combination Emax [13]: 0.807
combination Emax [14]: 0.258
combination Emax [15]: 0.432
combination Emax [16]: 0.546
combination Emax [17]: 0.513
combination Emax [18]: 0.633
combination Emax [19]: 0.756
combination Emax [20]: 0.392

CC1(C)CCC(CN2CCN(c3ccc(C(=O)NS(=O)(=O)c4ccc(NCC5CCOCC5)c([N+](=O)[O-])c4)c(Oc4cnc5[nH]ccc5c4)c3)CC2)=C(c2ccc(Cl)cc2)C1 [Venetoclax] + C[C@@H]1COCCN1C2=NC(=NC(=C2)C3(CC3)[S@](=N)(=O)C)C4=C5C=CNC5=NC=C4 [AZD6738] (first compound max 1 µM, 7x7, partner max 10 µM)
combination Emax [1]: 0.599
combination Emax [2]: 1
combination Emax [3]: 0.372
combination Emax [4]: 0.331
combination Emax [5]: 0.719
combination Emax [6]: 0.889
combination Emax [7]: 0.78
combination Emax [8]: 0.538
combination Emax [9]: 0.343
combination Emax [10]: 0.83
combination Emax [11]: 0.962
combination Emax [12]: 1
combination Emax [13]: 0.607
combination Emax [14]: 0.434
combination Emax [15]: 0.307
combination Emax [16]: 0.478
combination Emax [17]: 0.403
combination Emax [18]: 0.652
combination Emax [19]: 0.526
combination Emax [20]: 0.254

CN(CCO)CC[C@H](CSc1ccccc1)Nc1ccc(S(=O)(=O)NC(=O)c2ccc(N3CCC([C@@H](O)c4ccccc4-c4ccc(Cl)cc4)CC3)cc2)cc1S(=O)(=O)C(F)(F)F [AZD4320] + C=CCn1c(=O)c2cnc(Nc3ccc(N4CCN(C)CC4)cc3)nc2n1-c1cccc(C(C)(C)O)n1 [AZD1775] (first compound max 1 µM, partner max 1 µM)
combination Emax [1]: 0.665
combination Emax [2]: 1
combination Emax [3]: 0.92
combination Emax [4]: 0.983
combination Emax [5]: 0.904
combination Emax [6]: 0.972
combination Emax [7]: 0.402
combination Emax [8]: 0.733
combination Emax [9]: 0.0041
combination Emax [10]: 0.956
combination Emax [11]: 0.997
combination Emax [12]: 1
combination Emax [13]: 0.878
combination Emax [14]: 0.39
combination Emax [15]: 0.328
combination Emax [16]: 0.392
combination Emax [17]: 0.324
combination Emax [18]: 0.845
combination Emax [19]: 0.783
combination Emax [20]: 0.688

CC1(C)CCC(CN2CCN(c3ccc(C(=O)NS(=O)(=O)c4ccc(NCC5CCOCC5)c([N+](=O)[O-])c4)c(Oc4cnc5[nH]ccc5c4)c3)CC2)=C(c2ccc(Cl)cc2)C1 [Venetoclax] + Cc1cc2ncnn2cc1Nc1ncc2c(n1)n(C1CCOCC1)c(=O)n2C [AZD7648] (first compound max 1 µM, 7x7, partner max 10 µM)
combination Emax [1]: 0.152
combination Emax [2]: 0.956
combination Emax [3]: 0.183
combination Emax [4]: 0.155
combination Emax [5]: 0.363
combination Emax [6]: 0.657
combination Emax [7]: 0.812
combination Emax [8]: 0.303
combination Emax [9]: 0.383
combination Emax [10]: 0.489
combination Emax [11]: 0.438
combination Emax [12]: 1
combination Emax [13]: 0.289
combination Emax [14]: 0.112
combination Emax [15]: 0.157
combination Emax [16]: 0.291
combination Emax [17]: 0.163
combination Emax [18]: 0.387
combination Emax [19]: 0.279
combination Emax [20]: 0.208

Cc1c2c(nn1C)CSCc1cc(n(C)n1)CSc1cc(c3ccccc3c1)OCCCc1c(C(=O)O)n(C)c3c-2c(Cl)ccc13 [AZD5991] + C[C@@H](Nc1cc(F)cc(F)c1)c1cc(C(=O)N(C)C)cc2c(=O)cc(N3CCOCC3)oc12 [AZD8186] (first compound max 1 µM, 7x7, partner max 3 µM)
combination Emax [1]: 0.942
combination Emax [2]: 1
combination Emax [3]: 0.521
combination Emax [4]: 0.179
combination Emax [5]: 0.36
combination Emax [6]: 0.482
combination Emax [7]: 1
combination Emax [8]: 0.447
combination Emax [9]: 0.344
combination Emax [10]: 0.862
combination Emax [11]: 0.949
combination Emax [12]: 1
combination Emax [13]: 0.678
combination Emax [14]: 0.287
combination Emax [15]: 0.151
combination Emax [16]: 0.34
combination Emax [17]: 0.139
combination Emax [18]: 0.352
combination Emax [19]: 0.421
combination Emax [20]: 0.271

COc1cccc2c1C(=O)c1c(O)c3c(c(O)c1C2=O)C[C@@](O)(C(=O)CO)C[C@@H]3O[C@H]1C[C@H](N)[C@H](O)[C@H](C)O1 [Doxorubicin] + Cc1cc2ncnn2cc1Nc1ncc2c(n1)n(C1CCOCC1)c(=O)n2C [AZD7648] (first compound max 1 µM, 7x7, partner max 10 µM)
combination Emax [1]: 0.926
combination Emax [2]: 1
combination Emax [3]: 0.493
combination Emax [4]: 0.406
combination Emax [5]: 0.735
combination Emax [6]: 0.988
combination Emax [7]: 0.994
combination Emax [8]: 0.663
combination Emax [9]: 0.535
combination Emax [10]: 0.822
combination Emax [11]: 0.976
combination Emax [12]: 0.84
combination Emax [13]: 0.825
combination Emax [14]: 0.317
combination Emax [15]: 0.715
combination Emax [16]: 0.864
combination Emax [17]: 0.231
combination Emax [18]: 0.921
combination Emax [19]: 0.829
combination Emax [20]: 0.666

CC(=O)Nc1cccc(-n2c(=O)n(C3CC3)c(=O)c3c(Nc4ccc(I)cc4F)n(C)c(=O)c(C)c32)c1 [Trametinib] + Cc1nc(-c2cn3c(n2)-c2ccc(-c4cnn(C(C)(C)C(N)=O)c4)cc2OCC3)n(C(C)C)n1 [Taselisib] (first compound max 1 µM, 7x7, partner max 10 µM)
combination Emax [1]: 0.996
combination Emax [2]: 1
combination Emax [3]: 0.972
combination Emax [4]: 0.723
combination Emax [5]: 0.999
combination Emax [6]: 0.304
combination Emax [7]: 1
combination Emax [8]: 0.548
combination Emax [9]: 0.649
combination Emax [10]: 0.921
combination Emax [11]: 0.755
combination Emax [12]: 0.636
combination Emax [13]: 0.73
combination Emax [14]: 0.308
combination Emax [15]: 0.498
combination Emax [16]: 0.699
combination Emax [17]: 0.565
combination Emax [18]: 0.99
combination Emax [19]: 0.713
combination Emax [20]: 0.997

Cc1cc2ncnn2cc1Nc1ncc2c(n1)n(C1CCOCC1)c(=O)n2C [AZD7648] + CCN(CCO)CCCOc1ccc2c(Nc3cc(CC(=O)Nc4cccc(F)c4)[nH]n3)ncnc2c1 [AZD2811] (first compound max 10 µM, 7x7, partner max 1 µM)
combination Emax [1]: 0.359
combination Emax [2]: 1
combination Emax [3]: 0.214
combination Emax [4]: 0.198
combination Emax [5]: 0.554
combination Emax [6]: 0.356
combination Emax [7]: 0.838
combination Emax [8]: 0.445
combination Emax [9]: 0.285
combination Emax [10]: 0.66
combination Emax [11]: 0.392
combination Emax [12]: 0.574
combination Emax [13]: 0.334
combination Emax [14]: 0.276
combination Emax [15]: 0.409
combination Emax [16]: 0.359
combination Emax [17]: 0.164
combination Emax [18]: 0.548
combination Emax [19]: 0.457
combination Emax [20]: 0.245

Cc1c2c(nn1C)CSCc1cc(n(C)n1)CSc1cc(c3ccccc3c1)OCCCc1c(C(=O)O)n(C)c3c-2c(Cl)ccc13 [AZD5991] + Cc1cc2ncnn2cc1Nc1ncc2c(n1)n(C1CCOCC1)c(=O)n2C [AZD7648] (first compound max 1 µM, 7x7, partner max 10 µM)
combination Emax [1]: 0.956
combination Emax [2]: 1
combination Emax [3]: 0.521
combination Emax [4]: 0.192
combination Emax [5]: 0.483
combination Emax [6]: 0.323
combination Emax [7]: 1
combination Emax [8]: 0.302
combination Emax [9]: 0.501
combination Emax [10]: 0.848
combination Emax [11]: 0.957
combination Emax [12]: 1
combination Emax [13]: 0.619
combination Emax [14]: 0.191
combination Emax [15]: 0.576
combination Emax [16]: 0.361
combination Emax [17]: 0.223
combination Emax [18]: 0.442
combination Emax [19]: 0.468
combination Emax [20]: 0.262

COc1cccc(OCCCN)c1-c1cc(Nc2cnc(C#N)cn2)n[nH]1 [Prexasertib] + CCc1c2c(nc3ccc(O)cc13)-c1cc3c(c(=O)n1C2)COC(=O)[C@]3(O)CC [SN-38] (first compound max 1 µM, 7x7, partner max 0.3 µM)
combination Emax [1]: 0.727
combination Emax [2]: 1
combination Emax [3]: 0.958
combination Emax [4]: 0.975
combination Emax [5]: 0.933
combination Emax [6]: 1
combination Emax [7]: 0.865
combination Emax [8]: 0.894
combination Emax [9]: 0.402
combination Emax [10]: 0.794
combination Emax [11]: 1
combination Emax [12]: 1
combination Emax [13]: 0.85
combination Emax [14]: 0.625
combination Emax [15]: 0.663
combination Emax [16]: 0.743
combination Emax [17]: 0.612
combination Emax [18]: 0.933
combination Emax [19]: 0.98
combination Emax [20]: 0.954

COc1nnc2ccc(N3CCC(c4ccc(OCCN5CCN(C)C(=O)[C@H]5C)cc4)CC3)nn12 [AZD5153] + C[C@@H]1COCCN1C2=NC(=NC(=C2)C3(CC3)[S@](=N)(=O)C)C4=C5C=CNC5=NC=C4 [AZD6738] (first compound max 1 µM, 7x7, partner max 10 µM)
combination Emax [1]: 0.872
combination Emax [2]: 1
combination Emax [3]: 0.748
combination Emax [4]: 0.535
combination Emax [5]: 0.726
combination Emax [6]: 0.947
combination Emax [7]: 0.991
combination Emax [8]: 0.702
combination Emax [9]: 0.295
combination Emax [10]: 0.963
combination Emax [11]: 0.905
combination Emax [12]: 1
combination Emax [13]: 0.901
combination Emax [14]: 0.58
combination Emax [15]: 0.699
combination Emax [16]: 0.634
combination Emax [17]: 0.722
combination Emax [18]: 0.757
combination Emax [19]: 0.74
combination Emax [20]: 0.714
